The values below come from the Kinase Knowledgebase extract (Sharma et al. 2016).

What is called IC50 is the concentration needed to halve the response being measured. A higher IC50 goes with weaker potency.

Test [1] has as its target PIK3CA (human) (UniProt P42336). Nature of the test: Inhibition of PIK3CA Kinase Activity.
The target in test [2] is PIK3CD (Human) (UniProt O00329). Kind of test: Inhibition of PIK3CD Kinase Activity.

Each structure is given as a SMILES string.

Chain of PIK3CD (Human) (O00329 whole entry, looked up): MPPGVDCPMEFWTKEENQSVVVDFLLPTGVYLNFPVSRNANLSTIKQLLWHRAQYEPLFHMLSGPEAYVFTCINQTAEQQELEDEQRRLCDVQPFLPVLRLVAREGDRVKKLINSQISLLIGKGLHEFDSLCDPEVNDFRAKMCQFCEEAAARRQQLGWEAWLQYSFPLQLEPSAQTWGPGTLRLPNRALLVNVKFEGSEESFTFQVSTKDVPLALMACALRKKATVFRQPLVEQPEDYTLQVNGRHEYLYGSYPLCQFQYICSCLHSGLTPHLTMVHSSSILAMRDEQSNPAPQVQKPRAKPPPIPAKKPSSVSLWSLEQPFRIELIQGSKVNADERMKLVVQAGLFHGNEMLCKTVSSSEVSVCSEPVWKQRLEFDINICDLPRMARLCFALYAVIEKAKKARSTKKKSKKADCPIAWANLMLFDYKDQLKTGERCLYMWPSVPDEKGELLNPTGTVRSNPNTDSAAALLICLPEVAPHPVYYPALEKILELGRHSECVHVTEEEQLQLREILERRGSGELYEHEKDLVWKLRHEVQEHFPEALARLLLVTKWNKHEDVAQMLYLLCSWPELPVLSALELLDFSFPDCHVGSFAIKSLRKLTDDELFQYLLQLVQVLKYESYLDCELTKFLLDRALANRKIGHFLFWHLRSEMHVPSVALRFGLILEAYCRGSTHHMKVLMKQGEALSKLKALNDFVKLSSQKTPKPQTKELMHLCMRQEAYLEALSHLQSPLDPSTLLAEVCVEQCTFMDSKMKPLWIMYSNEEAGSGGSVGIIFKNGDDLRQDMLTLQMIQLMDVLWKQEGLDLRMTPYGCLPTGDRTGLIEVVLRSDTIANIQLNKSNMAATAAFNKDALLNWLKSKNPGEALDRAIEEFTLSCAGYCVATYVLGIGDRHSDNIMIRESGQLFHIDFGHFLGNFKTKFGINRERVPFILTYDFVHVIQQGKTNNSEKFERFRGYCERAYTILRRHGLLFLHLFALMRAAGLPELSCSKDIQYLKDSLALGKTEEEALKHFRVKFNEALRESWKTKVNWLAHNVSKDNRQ
Chain of PIK3CA (human) (P42336 whole entry, looked up): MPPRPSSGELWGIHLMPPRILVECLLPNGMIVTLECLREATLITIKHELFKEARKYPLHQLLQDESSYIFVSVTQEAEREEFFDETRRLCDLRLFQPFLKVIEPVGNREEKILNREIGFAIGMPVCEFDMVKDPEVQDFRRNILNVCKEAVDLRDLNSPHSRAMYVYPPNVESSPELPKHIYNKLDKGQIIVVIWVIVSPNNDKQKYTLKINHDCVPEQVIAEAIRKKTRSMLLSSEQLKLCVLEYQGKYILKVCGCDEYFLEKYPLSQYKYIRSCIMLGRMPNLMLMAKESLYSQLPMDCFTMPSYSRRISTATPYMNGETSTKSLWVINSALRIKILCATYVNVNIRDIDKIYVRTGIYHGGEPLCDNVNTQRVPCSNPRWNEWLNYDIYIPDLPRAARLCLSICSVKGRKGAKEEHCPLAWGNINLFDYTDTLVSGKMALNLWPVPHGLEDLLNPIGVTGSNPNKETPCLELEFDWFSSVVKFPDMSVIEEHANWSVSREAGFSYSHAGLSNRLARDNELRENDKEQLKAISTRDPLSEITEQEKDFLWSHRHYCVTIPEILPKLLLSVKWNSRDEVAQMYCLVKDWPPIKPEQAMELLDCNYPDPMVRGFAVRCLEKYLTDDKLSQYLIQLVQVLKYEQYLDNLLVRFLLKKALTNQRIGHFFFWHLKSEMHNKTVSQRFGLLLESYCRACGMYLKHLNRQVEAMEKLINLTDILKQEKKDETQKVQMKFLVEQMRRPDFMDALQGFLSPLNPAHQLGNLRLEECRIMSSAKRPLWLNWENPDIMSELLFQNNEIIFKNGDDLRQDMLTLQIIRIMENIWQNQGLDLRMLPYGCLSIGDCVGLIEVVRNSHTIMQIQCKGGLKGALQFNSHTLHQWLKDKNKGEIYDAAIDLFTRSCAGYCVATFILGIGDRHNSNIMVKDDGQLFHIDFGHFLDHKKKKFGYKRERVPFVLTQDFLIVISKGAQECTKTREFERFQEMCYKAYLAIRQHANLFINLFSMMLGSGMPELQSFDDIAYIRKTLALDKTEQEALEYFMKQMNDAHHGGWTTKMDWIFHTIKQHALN

In test [1], `CC(=NNS(=O)(=O)c1cc([N+](=O)[O-])ccc1N(C)CCc1ccccn1)c1cnn2ccc(C#N)cc12` yielded a half-inhibitory concentration (IC50) of 23 nM. On to `CC(=NNS(=O)(=O)c1cc([N+](=O)[O-])ccc1N(C)Cc1ccncc1)c1cnn2ccc(Br)cc12`, for which the IC50 in test [1] stood at 200 nM. Against the preceding compound, the IC50 is about 8.7-fold higher. With `CC(=NNS(=O)(=O)c1cc([N+](=O)[O-])ccc1N(C)Cc1ccncc1)c1cnn2ccc(C#N)cc12`, the 50% inhibitory concentration (IC50) in test [2] came out at 330 nM; in test [1], 40 nM.

With `CC(=NNS(=O)(=O)c1cc([N+](=O)[O-])ccc1N(C)CCc1c[nH]cn1)c1cnn2ccc(Br)cc12`, in test [1], the IC50 worked out at 160 nM. In turn, `CC(=NNS(=O)(=O)c1cc([N+](=O)[O-])ccc1N(C)CCN1CCCCC1)c1cnn2ccc(C#N)cc12` showed an IC50 in test [1] of 55 nM.

`CC(=NNS(=O)(=O)c1cc([N+](=O)[O-])ccc1N(C)CCN(C)C)c1cnn2ccc(C#N)cc12.CCCCCC`: the IC50 is 680 nM in test [2] and 51 nM in test [1].

`CC(=NNS(=O)(=O)c1cc([N+](=O)[O-])ccc1F)c1cnn2ccc(Br)cc12`: the 50% inhibitory concentration (IC50) in test [2] was determined as 500 nM; in test [1], 320 nM. In turn, `CC(=NNS(=O)(=O)c1cc([N+](=O)[O-])ccc1N(C)CCCN1CCOCC1)c1cnn2ccc(Br)cc12` came in with an IC50 in test [1] of 450 nM. `CC(=NNS(=O)(=O)c1cc([N+](=O)[O-])ccc1N(C)CCCN1CCOCC1)c1cnn2ccc(C#N)cc12` gave a 50% inhibitory concentration (IC50) in test [1] of 330 nM. For the compound `CC(=NNS(=O)(=O)c1cc([N+](=O)[O-])ccc1N(C)CCN(C)C)c1cnc2ccc(Br)cn12`, the half-inhibitory concentration (IC50) in test [1] turned out to be 330 nM. Regarding `CC(=NNS(=O)(=O)c1cc([N+](=O)[O-])ccc1C)c1cnn2ccc(Br)cc12.CCCCCC`, the half-inhibitory concentration (IC50) was 220 nM in test [2] and 30 nM in test [1]. With `CC(=NNS(=O)(=O)c1cc([N+](=O)[O-])ccc1N(C)CCn1ccnc1)c1cnn2ccc(Br)cc12`, the IC50 in test [1] was found to be 92 nM. That is a double-digit nanomolar value. In test [1], `CC(=NNS(=O)(=O)c1cc([N+](=O)[O-])ccc1N(C)CCN)c1cnn2ccc(C#N)cc12.CCCCCC` yielded a half-inhibitory concentration (IC50) of 340 nM. Turning to `CC(=NNS(=O)(=O)c1cc([N+](=O)[O-])ccc1N(C)CCn1ccnc1)c1cnn2ccc(C#N)cc12`, the IC50 was 860 nM in test [2] and 20 nM in test [1]. As for `CC(=NNS(=O)(=O)c1cc([N+](=O)[O-])ccc1N(C)CCc1ccncc1)c1cnn2ccc(Br)cc12`, the IC50 in test [1] is 44 nM. In test [1], `CC(=NNS(=O)(=O)c1cc([N+](=O)[O-])ccc1C)c1cnn2ccc(C#N)cc12` gave a 50% inhibitory concentration (IC50) of 7.3 nM. `CNCCN(C)c1ccc([N+](=O)[O-])cc1S(=O)(=O)NN=C(C)c1cnn2ccc(Br)cc12` had an IC50 in test [1] of 57 nM. Compared with the last compound, the IC50 is about 7.8-fold higher.

`CNCCN(C)c1ccc([N+](=O)[O-])cc1S(=O)(=O)NN=C(C)c1cnn2ccc(C#N)cc12`: the IC50 came to 390 nM in test [2] and 82 nM in test [1]. As to `CC(=NNS(=O)(=O)c1cc([N+](=O)[O-])ccc1N(C)CCc1c[nH]cn1)c1cnn2ccc(C#N)cc12.CCCCCC`, the 50% inhibitory concentration (IC50) in test [2] was 170 nM; in test [1] it was 33 nM. Compound `CC(=NN(C)S(=O)(=O)c1cc([N+](=O)[O-])ccc1N(C)CCN1CCCCC1)c1cnn2ccc(C#N)cc12` had an IC50 in test [1] of 240 nM. In the case of `CCN(CC)CCN(C)c1ccc([N+](=O)[O-])cc1S(=O)(=O)NN=C(C)c1cnn2ccc(C#N)cc12`, the IC50 in test [1] was found to be 140 nM.

Take `CC(=NNS(=O)(=O)c1cc([N+](=O)[O-])ccc1N(C)CCc1ccncc1)c1cnn2ccc(C#N)cc12`: the IC50 in test [2] is 420 nM; in test [1], 49 nM.

The compound `CC(=NNS(=O)(=O)c1cc([N+](=O)[O-])ccc1N(C)CCCN(C)C)c1cnn2ccc(C#N)cc12` returned an IC50 in test [1] of 100 nM. `CCCCCC.CCN(CC)CCN(C)c1ccc([N+](=O)[O-])cc1S(=O)(=O)NN=C(C)c1cnn2ccc(Br)cc12` came in with an IC50 in test [1] of 230 nM. Consider `CC(=NN(C)S(=O)(=O)c1cc([N+](=O)[O-])ccc1N(C)Cc1ccccn1)c1cnn2ccc(C#N)cc12`, for which the figures for the IC50 in test [2] and in test [1] were 580 nM and 5.2 nM, respectively. `CC(=NN(C)S(=O)(=O)c1cc([N+](=O)[O-])ccc1N(C)CCc1ccccn1)c1cnn2ccc(C#N)cc12` registered an IC50 in test [1] of 480 nM. As to `CC(=NNS(=O)(=O)c1cc([N+](=O)[O-])ccc1N(C)Cc1ccccn1)c1cnn2ccc(C#N)cc12`, the concentration for half-maximal inhibition (IC50) in test [2] was found to be 11 nM; in test [1] it was 4.8 nM. With `CC(=NNS(=O)(=O)c1cc([N+](=O)[O-])ccc1N(C)Cc1ccccn1)c1cnn2ccc(Br)cc12`, the concentration for half-maximal inhibition (IC50) is 230 nM in test [2] and 7.3 nM in test [1].

Consider `CC(=NNS(=O)(=O)c1cc([N+](=O)[O-])ccc1N(C)CCN1CCN(S(C)(=O)=O)CC1)c1cnn2ccc(Br)cc12.CCCCCC`, for which the IC50 in test [1] is 42 nM. As to `CC(=NN(C)S(=O)(=O)c1cc([N+](=O)[O-])ccc1N(C)CCN(C)C)c1cnn2ccc(C#N)cc12`, the half-inhibitory concentration (IC50) in test [2] stood at 660 nM; in test [1], 330 nM.

As to `CC(=NNS(=O)(=O)c1cc([N+](=O)[O-])ccc1N(C)CCN1CCN(S(C)(=O)=O)CC1)c1cnn2ccc(C#N)cc12`, the IC50 in test [2] worked out at 220 nM; in test [1], 22 nM. Regarding `CC(=NNS(=O)(=O)c1cc([N+](=O)[O-])ccc1F)c1cnc2ccc(Br)cn12`, the IC50 in test [1] was 300 nM. That is a sub-micromolar value. `CCC(=NNS(=O)(=O)c1cc([N+](=O)[O-])ccc1C)c1cnn2ccc(C#N)cc12` had a half-maximal inhibitory concentration (IC50) in test [1] of 9.8 nM. This IC50 lies about 31-fold lower than the previous one. In test [1], `CC(=NNS(=O)(=O)c1cc([N+](=O)[O-])ccc1N(C)CCc1ccccn1)c1cnn2ccc(Br)cc12` returned a concentration for half-maximal inhibition (IC50) of 90 nM. For the compound `Cc1ccc([N+](=O)[O-])cc1S(=O)(=O)NN=C(c1cnn2ccc(C#N)cc12)C(C)C`, the IC50 in test [2] came out at 310 nM; in test [1], 39 nM. Regarding `CC(=NNS(=O)(=O)c1cc([N+](=O)[O-])ccc1N(C)Cc1cccnc1)c1cnn2ccc(Br)cc12`, the half-maximal inhibitory concentration (IC50) in test [1] came out at 53 nM.

For `CCN(CC)CCN(C)c1ccc([N+](=O)[O-])cc1S(=O)(=O)N(C)N=C(C)c1cnn2ccc(C#N)cc12`, the IC50 in test [1] turned out to be 460 nM.
